# Results published in US9381187B2, “Radiation countermeasure agents” (PALOMA PHARMACEUTICALS, INC., priority 2011, dated 2016).
# How the values were obtained:
# [1] = test system: HOS cells (human osteoblast cells); assay: Cellular radioprotection, colony formation assay (cell survival after gamma radiation); type: cell-based; conditions: for survival: HOS cells under radioprotective treatment conditions (FIG. 2); for DRF: in vitro comparison with amifostine, HOS cells, gamma radiation (FIG. 2)
# Protocol: Radiation protection by P529 is evaluated using a human osteoblast cell model (HOS cells). The effect of P529 (10 μM, 4 hr) on cell survival after radiation is assessed; cell survival was measured using the colony formation assay.
# HOS cells = assay: Chromosomal radiation protection, metaphase aberration scoring; type: cell-based, human; conditions: for Breaks / Fragments / Percent Aberrant Cells / Rings + Dicentrics: Radiation + P529 (25 uM, 12 hrs pre-radiation)
# Protocol: Non-tumorigenic immortalized human osteosarcoma cells (HOS) are exposed to increasing doses of gamma radiation (O-4 Gy; 6.6 Gy/min). Control cells receive no drug; Drug-treated cells receive P529 (25 uM, 12 hrs pre-radiation). Metaphase plates are prepared from control and drug-treated cells (Gupta, Br J Radiol, 59:625 1986). A total of 100 metaphases are examined per group/dose. Aberrant metaphases, chromatid and chromosome breaks, fragments, rings, and dicentrics are scored under a light microscope. Aberrations are identified using criteria given by Savage (J Med Genetics 12:103-122, 1976).
# [2] = test system: C57 mice exposed to gamma radiation; assay: Mitigation of radiation effect in vivo (TBI 9 Gy); conditions: female C57 mice, 9 Gy gamma radiation; ip 100 μl on day 1 and days 3-26
# Text: Sixteen female C57 mice are exposed to gamma radiation (9 Gy). Group 1 received radiation only (no drug). Group 2 received radiation and P529 as noted in the following schedule: […]
structure (smiles),measurement,setting,value
"COc1ccc(COc2cc3oc(=O)c4cc(C(C)O)ccc4c3cc2OC)cc1 (stereo not shown) [P529, 8-(1-Hydroxy-ethyl)-2-methoxy-3-(4-methoxy-benzyloxy)-benzo[c]chromen-6-one]",dose-reduction factor (DRF),"[1]; HOS cells pretreated 10 μM for 4 hr prior to gamma radiation, at the 0.005 survival fraction (FIG. 1)",1.38
same,survival,[1],0.99
same,DRF,[1],1.34
same,radiation resistance of cells,[1]; pretreated 10 μM for 4 hr prior to radiation exposure,significant radiation resistance
same,Breaks,HOS cells; dose 0 Gy,.0016 ± .0002
same,Fragments,HOS cells; dose 0 Gy,.007 ± .0009
same,Percent Aberrant Cells,HOS cells; dose 0 Gy,.66 ± .07%
same,Rings + Dicentrics,HOS cells; dose 0 Gy,0.00 ± 0.0
same,Breaks,HOS cells; dose 1 Gy,.0013 ± .0002
same,Fragments,HOS cells; dose 1 Gy,.05 ± .006
same,Percent Aberrant Cells,HOS cells; dose 1 Gy,3.1 ± .033%
same,Rings + Dicentrics,HOS cells; dose 1 Gy,0.00 ± 0.0
same,Breaks,HOS cells; dose 2 Gy,.0018 ± .0002
same,Fragments,HOS cells; dose 2 Gy,.118 ± .022
same,Percent Aberrant Cells,HOS cells; dose 2 Gy,5.0 ± .052%
same,Rings + Dicentrics,HOS cells; dose 2 Gy,.003 ± .0004
same,Breaks,HOS cells; dose 3 Gy,.0022 ± .0003
same,Fragments,HOS cells; dose 3 Gy,.23 ± .028
same,Percent Aberrant Cells,HOS cells; dose 3 Gy,11.4 ± 1.22%
same,Rings + Dicentrics,HOS cells; dose 3 Gy,.005 ± .0004
same,Breaks,HOS cells; dose 4 Gy,.0039 ± .0004
same,Fragments,HOS cells; dose 4 Gy,.30 ± .031
same,Percent Aberrant Cells,HOS cells; dose 4 Gy,19.5 ± 1.29%
same,Rings + Dicentrics,HOS cells; dose 4 Gy,.017 ± .002
same,chromosomal protection from radiation exposure,"HOS cells; human HOS cells, Table 2",can provide chromosomal protection from radiation exposure
same,mitigation of radiation effect and damage,[2],can mitigate the radiation effect
"NCCCNCCSP(=O)(O)O [amifostine, reference compound]",survival,[1],0.35
same,DRF,[1],1.45
